# System: HCV 1b RLuc cells (dicistronic genotype 1b Con1 replicon)
# Experiment: Renilla luciferase (RLuc)-based HCV replicon reporter assay
# Format: cell-based, HCV genotype 1b
# Conditions: Hepatitis C virus, 72 h, HCV 1b RLuc replicon, 72 hours; read-out: Activity (antiviral potency [EC50])
# Summary of the method: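 HCV 1b RLuc cells carrying a dicistronic genotype 1b Con1 replicon were treated with serially diluted compounds from 10 mM DMSO stocks. After 72 h, cells were lysed and Renilla luciferase activity measured. EC50 was obtained by non-linear regression.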
row,SMILES,EC50
1,COC(=O)N[C@H](C(=O)N1CCC[C@H]1c1ncc(-c2ccc(-c3cnc(-c4ccc(-c5cnc([C@@H]6CCCN6C(=O)[C@@H](NC(=O)OC)C(C)C)[nH]5)cc4)s3)cc2)[nH]1)C(C)C,0.0385 nM
2,COC(=O)N[C@H](C(=O)N1CCC[C@H]1c1ncc(-c2ccc(-c3ccc(-c4ccc(-c5cnc([C@@H]6CCCN6C(=O)[C@@H](NC(=O)OC)C(C)C)[nH]5)cc4)s3)cc2)[nH]1)C(C)C,0.0989 nM
3,COC(=O)N[C@H](C(=O)N1CCC[C@H]1c1ncc(-c2ccc(-c3cccc4c(-c5ccc(-c6cnc([C@@H]7CCCN7C(=O)[C@@H](NC(=O)OC)C(C)C)[nH]6)cc5)cccc34)cc2)[nH]1)C(C)C,26.7 nM
4,COC(=O)N[C@H](C(=O)N1CCC[C@H]1c1ncc(-c2ccc(-c3cccc4c(-c5cnc([C@@H]6CCCN6C(=O)[C@@H](NC(=O)OC)C(C)C)[nH]5)cccc34)cc2)[nH]1)C(C)C,0.0032 nM
5,COC(=O)N[C@H](C(=O)N1CC2(CC2)C[C@H]1c1ncc(-c2ccc3cc(-c4ccc(-c5cnc([C@@H]6[C@H]7CC[C@H](C7)N6C(=O)[C@@H](NC(=O)OC)C6CCOCC6)[nH]5)cc4)ccc3c2)[nH]1)C(C)C,0.0115 nM
6,COC(=O)N[C@H](C(=O)N1CC2(CC2)C[C@H]1c1ncc(-c2ccc3cc(-c4ccc(-c5cnc([C@@H]6[C@H]7CC[C@H](C7)N6C(=O)[C@@H](NC(=O)OC)C6CCOCC6)[nH]5)cc4)ccc3c2)[nH]1)C1CCOCC1,0.0255 nM
7,COC(=O)N[C@H](C(=O)N1CC2(CC2)C[C@H]1c1ncc(-c2ccc3cc(-c4ccc(-c5cnc([C@@H]6[C@H]7CC[C@H](C7)N6C(=O)[C@@H](NC(=O)OC)C(C)(C)C)[nH]5)cc4)ccc3c2)[nH]1)C(C)C,0.009 nM
8,COC(=O)N[C@H](C(=O)N1CC2(CC2)C[C@H]1c1ncc(-c2ccc(-c3ccc4cc(-c5cnc([C@@H]6CC7(CC7)CN6C(=O)[C@@H](NC(=O)OC)C(C)C)[nH]5)ccc4c3)cc2)[nH]1)C(C)C,0.0048 nM
9,COC(=O)N[C@@H](CCC#N)C(=O)N1CC2(CC2)C[C@H]1c1ncc(-c2ccc3cc(-c4ccc(-c5cnc([C@@H]6[C@H]7CC[C@H](C7)N6C(=O)[C@@H](NC(=O)OC)C(C)C)[nH]5)cc4)ccc3c2)[nH]1,0.0159 nM
10,COC(=O)N[C@H](C(=O)N1CC2(CC2)C[C@H]1c1ncc(-c2ccc(-c3ccc4cc(-c5cnc([C@@H]6[C@H]7CC[C@H](C7)N6C(=O)[C@@H](NC(=O)OC)C(C)C)[nH]5)ccc4c3)cc2)[nH]1)C(C)C,0.0076 nM
11,COC(=O)N[C@H](C(=O)N1CC2(CC2)C[C@H]1c1ncc(-c2ccc(-c3ccc4cc(-c5cnc([C@@H]6[C@H]7CC[C@H](C7)N6C(=O)[C@@H](NC(=O)OC)C(C)(C)OC)[nH]5)ccc4c3)cc2)[nH]1)C(C)C,0.0155 nM
12,COCCO[C@H]1C[C@@H](c2ncc(-c3ccc(-c4ccc5cc(-c6cnc([C@@H]7CC8(CC8)CN7C(=O)[C@@H](NC(=O)OC)C(C)C)[nH]6)ccc5c4)cc3)[nH]2)N(C(=O)[C@@H](NC(=O)OC)C(C)C)C1,0.0146 nM
13,COC(=O)N[C@H](C(=O)N1C[C@@H](Oc2cnccn2)C[C@H]1c1ncc(-c2ccc(-c3ccc4cc(-c5cnc([C@@H]6CC7(CC7)CN6C(=O)[C@@H](NC(=O)OC)C(C)C)[nH]5)ccc4c3)cc2)[nH]1)C(C)C,0.014 nM
14,COC(=O)N[C@H](C(=O)N1CC2(CC2)C[C@H]1c1ncc(-c2ccc(-c3ccc4cc(-c5cnc([C@@H]6[C@H]7CC[C@H](C7)N6C(=O)[C@@H](NC(=O)OC)C6CC6)[nH]5)ccc4c3)cc2)[nH]1)C(C)C,0.0534 nM
15,COC(=O)N[C@H](C(=O)N1[C@@H]2CC[C@@H](C2)[C@H]1c1ncc(-c2ccc3cc(-c4ccc(-c5cnc([C@@H]6CC7(CC7)CN6C(=O)[C@@H](NC(=O)OC)C6CC6)[nH]5)cc4)ccc3c2)[nH]1)C(C)C,0.286 nM
16,COC(=O)N[C@@H](CCOC(F)F)C(=O)N1[C@@H]2CC[C@@H](C2)[C@H]1c1ncc(-c2ccc(-c3ccc4cc(-c5cnc([C@@H]6CC7(CC7)CN6C(=O)[C@@H](NC(=O)OC)C(C)C)[nH]5)ccc4c3)cc2)[nH]1,0.008 nM
17,COC(=O)N[C@H](C(=O)N1CC2(CC2)C[C@H]1c1ncc(-c2ccc3cc(-c4ccc(-c5cnc([C@@H]6[C@H]7CC[C@H](C7)N6C(=O)[C@@H](NC(=O)OC)C(C)OC)[nH]5)cc4)ccc3c2)[nH]1)C(C)OC (some centres unmarked),0.0201 nM
18,COC(=O)N[C@H](C(=O)N1[C@@H]2CC[C@@H](C2)[C@H]1c1ncc(-c2ccc(-c3ccc4cc(-c5cnc([C@@H]6CC7(CC7)CN6C(=O)[C@@H](NC(=O)OC)C(C)C)[nH]5)ccc4c3)cc2)[nH]1)c1ccccc1,0.0071 nM
19,COC(=O)N[C@H](C(=O)N1CC2(CC2)C[C@H]1c1ncc(-c2ccc3cc(-c4ccc(-c5cnc([C@@H]6[C@H]7CC[C@H](C7)N6C(=O)[C@H](NC(=O)OC)c6ccccc6)[nH]5)cc4)ccc3c2)[nH]1)C(C)C,0.0261 nM
20,COC(=O)N[C@@H](CCOC(F)F)C(=O)N1CC2(CC2)C[C@H]1c1ncc(-c2ccc3cc(-c4ccc(-c5cnc([C@@H]6[C@H]7CC[C@H](C7)N6C(=O)[C@@H](NC(=O)OC)C(C)C)[nH]5)cc4)ccc3c2)[nH]1,0.0114 nM
21,COC[C@H]1C[C@@H](c2ncc(-c3ccc(-c4ccc5cc(-c6cnc([C@@H]7CC8(CC8)CN7C(=O)[C@@H](NC(=O)OC)C(C)C)[nH]6)ccc5c4)cc3)[nH]2)N(C(=O)[C@@H](NC(=O)OC)C(C)C)C1,0.0073 nM

row,SMILES,EC50
1,CC[C@H](C)[C@H](NC(=O)OC)C(=O)N1CCC[C@H]1c1ncc(C#Cc2ccc3cc(-c4cnc([C@@H]5CCCN5C(=O)[C@@H](NC(=O)OC)[C@@H](C)CC)[nH]4)ccc3c2)[nH]1,0.0147 nM
2,COC(=O)NC(C(=O)N1CCC[C@H]1c1ncc(-c2ccc(-c3ccc4cc(-c5cnc([C@@H]6CCCN6C(=O)[C@@H](NC(=O)OC)C(C)C)[nH]5)ccc4c3)cc2)[nH]1)c1ccccc1 (some centres unmarked),0.0097 nM
3,COC(=O)NC(C(=O)N1CC2(CC2)C[C@H]1c1ncc(-c2ccc3cc(-c4ccc(-c5cnc([C@@H]6[C@H]7CC[C@H](C7)N6C(=O)[C@@H](NC(=O)OC)C(C)C)[nH]5)cc4)ccc3c2)[nH]1)c1ccccc1 (some centres unmarked),0.0145 nM
4,COC(=O)N[C@H](C(=O)N1[C@@H]2CC[C@@H](C2)[C@H]1c1ncc(-c2ccc(-c3ccc4cc(-c5cnc([C@@H]6CC7(CC7)CN6C(=O)[C@H](NC(=O)OC)c6ccccc6)[nH]5)ccc4c3)cc2)[nH]1)C(C)C,0.0394 nM
5,COC(=O)N[C@H](C(=O)N1CC2(CC2)C[C@H]1c1ncc(-c2ccc3cc(-c4ccc(-c5cnc([C@@H]6[C@H]7CC[C@H](C7)N6C(=O)[C@@H](NC(=O)OC)C(C)(C)OC)[nH]5)cc4)ccc3c2)[nH]1)C(C)C,0.0145 nM
6,COC(=O)N[C@H](C(=O)N1CC2(CC2)C[C@H]1c1ncc(-c2ccc3cc(-c4ccc(-c5cnc([C@@H]6CCCN6C(=O)[C@@H](NC(=O)OC)C(C)OC)[nH]5)cc4)ccc3c2)[nH]1)C(C)C (some centres unmarked),0.0074 nM
7,COC(=O)N[C@@H](CCC(F)(F)F)C(=O)N1CCC[C@H]1c1ncc(-c2ccc(-c3ccc(-c4cnc([C@@H]5CCCN5C(=O)[C@@H](NC(=O)OC)C(C)C)[nH]4)cc3)cc2)[nH]1,0.04 nM
8,COC(=O)N[C@@H](CCC(F)(F)F)C(=O)N1CCC[C@H]1c1ncc(-c2ccc(-c3ccc(-c4cnc([C@@H]5CCCN5C(=O)[C@H](CCC(F)(F)F)NC(=O)OC)[nH]4)cc3)cc2)[nH]1,0.0635 nM
9,COC(=O)N[C@H](C(=O)N1CCC[C@H]1c1ncc(-c2ccc(-c3ccc(-c4cnc([C@@H]5CC6(CCC6)ON5C(=O)[C@@H](NC(=O)OC)C(C)C)[nH]4)cc3)cc2)[nH]1)C(C)C,0.0083 nM
10,COC(=O)N[C@H](C(=O)N1CCC[C@H]1c1ncc(-c2ccc(-c3ccc(-c4cnc([C@@H]5CC6(CN5C(=O)[C@@H](NC(=O)OC)C(C)C)OCCO6)[nH]4)cc3)cc2)[nH]1)C(C)C,0.0555 nM
11,COC(=O)N[C@@H](CCOC(F)F)C(=O)N1CCC[C@H]1c1ncc(-c2ccc(-c3ccc(-c4cnc([C@@H]5CC6(CN5C(=O)[C@@H](NC(=O)OC)C(C)C)OCCO6)[nH]4)cc3)cc2)[nH]1,0.128 nM
12,COC(=O)N[C@H](C(=O)N1CC2(C[C@H]1c1ncc(-c3ccc(-c4ccc(-c5cnc([C@@H]6CCCN6C(=O)[C@@H](NC(=O)OC)C6CCOCC6)[nH]5)cc4)cc3)[nH]1)OCCO2)C(C)C,0.546 nM
13,COC(=O)N[C@@H](CCOCC(F)(F)F)C(=O)N1CCC[C@H]1c1ncc(-c2ccc(-c3ccc(-c4cnc([C@@H]5CCCN5C(=O)[C@@H](NC(=O)OC)C(C)C)[nH]4)cc3)cc2)[nH]1,0.0273 nM
14,COC(=O)N[C@@H](CCOCC(F)(F)F)C(=O)N1CCC[C@H]1c1ncc(-c2ccc(-c3ccc(-c4cnc([C@@H]5CCCN5C(=O)[C@H](CCOCC(F)(F)F)NC(=O)OC)[nH]4)cc3)cc2)[nH]1,0.0244 nM
15,COC(=O)N[C@H](C(=O)N1CC2(C[C@H]1c1ncc(-c3ccc(-c4ccc(-c5cnc([C@@H]6CC7(CN6C(=O)[C@@H](NC(=O)OC)C(C)C)OCCO7)[nH]5)cc4)cc3)[nH]1)OCCO2)C(C)C,0.105 nM
16,COC(=O)N[C@H](C(=O)N1CCC[C@H]1c1ncc(-c2ccc(-c3ccc(-c4cnc([C@H]5CC6(CCC6)ON5C(=O)[C@@H](NC(=O)OC)C(C)C)[nH]4)cc3)cc2)[nH]1)C(C)C,0.11 nM
17,CC[C@H](C)[C@H](NC(=O)OC)C(=O)N1C[C@@H](C#N)C[C@H]1c1ncc(-c2ccc3cc(-c4ccc(-c5cnc([C@@H]6CC7(CC7)CN6C(=O)[C@@H](NC(=O)OC)C(C)C)[nH]5)cc4)ccc3c2)[nH]1,0.01 nM
18,COC(=O)N[C@H](C(=O)N1OC2(CCC2)C[C@H]1c1ncc(-c2ccc(-c3ccc(-c4cnc([C@@H]5CC6(CCC6)ON5C(=O)[C@@H](NC(=O)OC)C(C)C)[nH]4)cc3)cc2)[nH]1)C(C)C,0.0054 nM
19,COC(=O)N[C@@H](CCOC(F)F)C(=O)N1CCC[C@H]1c1ncc(-c2ccc(-c3ccc4cc(-c5cnc([C@@H]6CC7(CC7)CN6C(=O)[C@@H](NC(=O)OC)C(C)C)[nH]5)ccc4c3)cc2)[nH]1,0.0052 nM
20,COC(=O)N[C@H](C(=O)N1CCC[C@H]1c1ncc(-c2ccc(-c3ccc(-c4cnc([C@@H]5C[C@H](COC(F)F)CN5C(=O)[C@@H](NC(=O)OC)C(C)C)[nH]4)cc3)cc2)[nH]1)C(C)C,0.015 nM
